Test results published in patent US6737383B1, “Herbicidal oxadiazolidines” (priority 1999, dated 2004).

Assays:
[1] = test system: surinam grass; assay: Test B pre/postemergence surinam grass; assay type: in vivo, Brachiaria decumbens
Method in brief: (§1)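 Response is a visual 0-to-10 score relative to untreated plants, where 0 means no effect and 10 means complete control, taken twelve to sixteen days after application. Treatments went onto soil at planting and onto foliage of 1- to 4-leaf plants, using a surfactant-containing non-phytotoxic solvent.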

[2] = test system: cocklebur; assay: Test B pre/postemergence cocklebur; assay type: in vivo, Xanthium strumarium
Method in brief: as §1

[3] = test system: corn; assay: Test B pre/postemergence corn; assay type: in vivo, Zea mays
Method in brief: as §1

[4] = test system: crabgrass; assay: Test B pre/postemergence crabgrass; assay type: in vivo, Digitaria sanguinalis
Method in brief: as §1

[5] = test system: giant foxtail; assay: Test B pre/postemergence giant foxtail; assay type: in vivo, Setaria faberii
Method in brief: as §1

[6] = test system: morningglory; assay: Test B pre/postemergence morningglory; assay type: in vivo, Ipomoea hederacea
Method in brief: as §1

[7] = test system: pigweed; assay: Test B pre/postemergence pigweed; assay type: in vivo, Amaranthus retroflexus
Method in brief: as §1

[8] = test system: rape; assay: Test B pre/postemergence rape; assay type: in vivo, Brassica napus
Method in brief: as §1

[9] = test system: sugar beet; assay: Test B pre/postemergence sugar beet; assay type: in vivo, Beta vulgaris
Method in brief: as §1

[10] = test system: wheat; assay: Test B pre/postemergence wheat; assay type: in vivo, Triticum aestivum
Method in brief: as §1

[11] = test system: wild oat; assay: Test B pre/postemergence wild oat; assay type: in vivo, Avena fatua
Method in brief: as §1

[12] = test system: purple nutsedge; assay: Test B pre/postemergence purple nutsedge; assay type: in vivo, Cyperus rotundus
Method in brief: as §1

[13] = test system: rice; assay: Test B flood test rice; assay type: in vivo, Oryza sativa
Method in brief: (§2)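 Read-out is a visual response score from 0 (no effect) to 10 (complete control), assigned by comparison with untreated controls. Treatment was applied at the 2-leaf stage, and plants stayed in the greenhouse for twelve to sixteen days before scoring.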

[14] = test system: smallflower flatsedge; assay: Test B flood test smallflower flatsedge; assay type: in vivo, Cyperus difformis
Method in brief: as §2

[15] = test system: duck salad; assay: Test B flood test duck salad; assay type: in vivo, Heteranthera limosa
Method in brief: as §2

[16] = test system: bamyardgrass; assay: Test B flood test barnyardgrass; assay type: in vivo, Echinochloa crus-galli
Method in brief: as §2

[17] = Postemergence, Rate 62 g/ha, scale 0 to 10, 0 is no effect, 10 is complete control
[18] = Postemergence, Rate 125 g/ha, scale of 0 to 10 where 0 is no effect and 10 is complete control
[19] = Postemergence, Rate 250 g/ha, scale of 0 to 10, 0 is no effect, 10 is complete control
[20] = Preemergence, Rate 62 g/ha, scale of 0 to 10 where 0 is no effect and 10 is complete control
[21] = Preemergence, Rate 125 g/ha, scale of 0 to 10 where 0 is no effect and 10 is complete control
[22] = Preemergence, Rate 250 g/ha, scale 0 to 10 (0 no effect, 10 complete control)
[23] = Preemergence, Rate 500 g/ha, scale of 0 to 10 where 0 is no effect and 10 is complete control
[24] = Rate 500 g/ha, Postemergence, scale 0 to 10, 0 is no effect, 10 is complete control
[25] = Rate 62 g/ha, flood test species, Pre-emergence, visual evaluation after twelve to sixteen days
[26] = Rate 125 g/ha, under heading Pre-emergence, flood test species, visual evaluation after twelve to sixteen days
[27] = Rate 250 g/ha, Pre-emergence (flood test species), scale 0 to 10, 0 is no effect, 10 is complete control
[28] = Rate 500 g/ha, Pre-emergence section of Table B, 0 to 10 scale (0 no effect, 10 complete control)

C#CC=CC(C)(C)n1c(=O)on(C(=O)N(c2ccccc2)C(C)C)c1=O [Compound 655]
0: Plant response rating, B. signalgrass [1, 17] | Plant response rating, B. signalgrass [1, 18] | B. signalgrass plant response rating [1, 20] | B. signalgrass plant response rating [1, 21] | Plant response rating, B. signalgrass [1, 22] | Plant response rating, B. signalgrass [1, 23] | Plant response rating, Cocklebur [2, 17] | Cocklebur plant response rating [2, 18] | Cocklebur plant response rating [2, 19] | Cocklebur plant response rating [2, 20] | Cocklebur plant response rating [2, 21] | Plant response rating, Cocklebur [2, 22] | Plant response rating, Cocklebur [2, 23] | Cocklebur plant response rating [2, 24] | Plant response rating, Corn [3, 17] | Corn plant response rating [3, 18] | Corn plant response rating [3, 19] | Corn plant response rating [3, 20] | Corn plant response rating [3, 21] | Plant response rating, Corn [3, 22] | Plant response rating, Corn [3, 23] | Corn plant response rating [3, 24] | Morningglory plant response rating [6, 20] | Morningglory plant response rating [6, 21] | Plant response rating, Morningglory [6, 22] | Plant response rating, Morningglory [6, 23] | Redroot pigweed plant response rating [7, 20] | Plant response rating, Rape [8, 17] | Rape plant response rating [8, 20] | Rape plant response rating [8, 21] | Plant response rating, Rape [8, 22] | Plant response rating, Rape [8, 23] | Plant response rating, Sugarbeets [9, 17] | Sugarbeets plant response rating [9, 18] | Sugarbeets plant response rating [9, 20] | Sugarbeets plant response rating [9, 21] | Plant response rating, Sugarbeets [9, 22] | Plant response rating, Sugarbeets [9, 23] | Plant response rating, Wheat [10, 17] | Wheat plant response rating [10, 18] | Wheat plant response rating [10, 20] | Wheat plant response rating [10, 21] | Plant response rating, Wheat [10, 22] | Plant response rating, Wheat [10, 23] | Wheat plant response rating [10, 24] | Plant response rating, Wild oats [11, 17] | Wild oats plant response rating [11, 18] | Wild oats plant response rating [11, 20] | Wild oats plant response rating [11, 21] | Plant response rating, Wild oats [11, 22] | Plant response rating, Wild oats [11, 23] | Plant response rating, Nutsedge [12, 17] | Nutsedge plant response rating [12, 18] | Nutsedge plant response rating [12, 20] | Nutsedge plant response rating [12, 21] | Plant response rating, Nutsedge [12, 22] | Plant response rating, Nutsedge [12, 23] | Plant response rating, Rice (0 to 10 scale, 0 is no effect, 10 is complete control) [13, 25] | Rice plant response rating (0 to 10 scale, 0 is no effect, 10 is complete control) [13, 26] | Rice plant response rating [13, 27] | Rice plant response rating [13, 28] | Plant response rating, S. Flatsedge (0 to 10 scale, 0 is no effect, 10 is complete control) [14, 25] | S. Flatsedge plant response rating (0 to 10 scale, 0 is no effect, 10 is complete control) [14, 26] | S. Flatsedge plant response rating [14, 27] | S. Flatsedge plant response rating [14, 28] | Plant response rating, Ducksalad (0 to 10 scale, 0 is no effect, 10 is complete control) [15, 25] | Ducksalad plant response rating (0 to 10 scale, 0 is no effect, 10 is complete control) [15, 26] | Ducksalad plant response rating [15, 27] | Ducksalad plant response rating [15, 28] | Plant response rating, Barnyardgrass (0 to 10 scale, 0 is no effect, 10 is complete control) [16, 25] | Barnyardgrass plant response rating (0 to 10 scale, 0 is no effect, 10 is complete control) [16, 26] | Barnyardgrass plant response rating [16, 27] | Barnyardgrass plant response rating [16, 28]
7: Giant foxtail plant response rating [5, 18] | Redroot pigweed plant response rating [7, 24]
3: Giant foxtail plant response rating [5, 20] | Rape plant response rating [8, 24]
2: B. signalgrass plant response rating [1, 19] | B. signalgrass plant response rating [1, 24] | Redroot pigweed plant response rating [7, 18] | Redroot pigweed plant response rating [7, 21] | Plant response rating, Redroot pigweed [7, 22] | Rape plant response rating [8, 18] | Sugarbeets plant response rating [9, 24]
9: Plant response rating, Crabgrass [4, 23] | Crabgrass plant response rating [4, 24] | Giant foxtail plant response rating [5, 21] | Plant response rating, Giant foxtail [5, 22] | Plant response rating, Giant foxtail [5, 23] | Giant foxtail plant response rating [5, 24] | Plant response rating, Morningglory [6, 17] | Morningglory plant response rating [6, 19]
1: Plant response rating, Crabgrass [4, 17] | Plant response rating, Giant foxtail [5, 17] | Plant response rating, Redroot pigweed [7, 17] | Wild oats plant response rating [11, 24]
8: Crabgrass plant response rating [4, 18] | Crabgrass plant response rating [4, 19] | Crabgrass plant response rating [4, 21] | Plant response rating, Crabgrass [4, 22]
4: Plant response rating, Redroot pigweed [7, 23]
